We go through one compound from patent US20220175717A1, “PHENPROCOUMON TTS” (LTS LOHMANN THERAPIE-SYSTEME AG, priority 2019, published 2022).

Series [1] in a line: Solubility of phenprocoumon in process solvents. The class given is physicochemical. Here is the method: Since toluene polysiloxane solution is not commercially available, BIO PSA 4201 from Dow Chemicals (polysiloxane in n-heptane) was used as starting material. The solvent was evaporated off and the rubbery polymeric residue was dissolved with enough toluene to obtain a solution with approx. 75% solids.

For series [2] the following is noted: once absorbed by the body; cited from earlier work.
Series [3] in a line: Saturation concentration Cs of phenprocoumon in polymer matrices (sandwich method of Liu). The class given is physicochemical. The settings on record: for Cs of phenprocoumon: 7 days at room temperature. The procedure:
The saturation concentration Cs of phenprocoumon was determined in various polymer matrices according to the method of Liu (Liu, P., Gargiulo, P., Wong, J., and Novartis (1997). A Novel Method for Measuring Solubility of a Drug in an Adhesive. Pharmaceutical Research 14, p. 317). In this method, known among experts as the “sandwich” method, the saturation concentration is determined as follows: A laminate is built up with the following sequence of layers: protective film—donor layer with active substance (dissolved and undissolved)—active-substance-permeable membrane—acceptor layer without active substance—protective film. The two protective films consist of identical material; the matrix material of the donor layer and acceptor layer is also identical. The donor layer is prepared by dissolving the active substance in a solution of the polymer in organic solvent. In this process, the concentration of the active substance must be chosen to be high enough that an undissolved residue is visible in the polymer matrix, so that the saturation concentration Cs in the donor layer is safely exceeded. This solution is spread on the protective film and the process solvent is evaporated. Then, the adhesive surface of the donor layer is covered with the membrane. The membrane used is a dialysis tube made of regenerated cellulose (ZelluTrans, from Roth, 46 mm flat width), which has been cut open lengthwise. The acceptor layer is produced analogously to the donor layer without active substance and is applied to the other side of the membrane. The laminates produced in this way are then stored at room temperature for 7 days, during which diffusion of the active substance through the membrane into the acceptor layer occurs. Subsequently, the active substance concentration in the donor layer is determined. For this purpose, aliquots of approx. 1 cm^2 are punched using a punching tool with a standardised surface area. The membrane is then removed, the punched pieces without membrane are weighed, and their weight is documented (m1). Then, the punched pieces are placed in organic solvent to dissolve the matrices. The backing layers are removed, washed and dried and their weight (m2) is determined. From both measured values, the weight of the polymer portion of the […] m3 is obtained as follows: m3=m1−m2 Subsequently, the concentration of phenprocoumon is determined in the solution using HPLC, and its concentration in the donor layer is calculated. The saturation concentrations of phenprocoumon in different polymer matrices determined according to this experimental approach are summarised in Table 1: […]

Molecules are shown by their SMILES.

`CCC(c1ccccc1)c1c(O)c2ccccc2oc1=O` (stereo not drawn) [phenprocoumon, Phenprocoumon]: the solubility result is listed as “sufficiently soluble” in series [1] (in aromatic hydrocarbons) and “not in n-heptane” in series [1] (in n-heptane). Further, the biological half-life entry in series [2] is given as “up to 160 hours”. The Cs of phenprocoumon was 6.11% in series [3] (in acrylate copolymer of 2-ethylhexyl acrylate, vinyl acetate and 2-hydroxyl ethyl acrylate, ethyl acetate); 7.26% in series [3] (in acrylic copolymer of 2-ethylhexyl acrylate, butyl acrylate, vinyl acetate, acrylic acid, ethyl acetate); 2.8% in series [3] (in polyisobutylene, polymer dissolved in toluene); 0.3% in series [3] (in polysiloxane, ethyl acetate); 3.9% in series [3] (in styrene-isoprene-styrene block copolymer, polymer dissolved in toluene). Besides, the “saturation concentration Cs of phenprocoumon” value in series [3] (in neutral polymers (text summary of Table 1)) is on record as greater than 5%.
